Test results taken from patent US20210030869A1, “DOSING REGIMEN FOR AN IDO INHIBITOR” (Incyte Corporation, priority 2019, published 2021).
“Also recorded” adds a separate entry of the source. Like-named read-outs stand apart in the source and are kept apart here.

What was measured:
endometrial cancer = conditions: cited from earlier work
[1] = Safety and dose-limiting toxicity in Phase 1b dose-finding study (INCMGA 0012-102); type: in vivo; conditions: epacadostat 900 mg BID with ANTIBODY X 500 mg Q4W
Source text: The study is an open-label, nonrandomized, multicenter, Phase 1b study with independent treatment groups.
For dose escalation, a Bayesian optimal interval (BOIN) design with a cohort size of approximately 3 evaluable participants is used. The target rate of dose-limiting toxicities (DLTs) is assumed to be 30% for each combination. At each dose level, a maximum of 9 participants are enrolled.
Participants in the dose-escalation cohorts are observed for 28 days for occurrence of DLTs.
The MTD is defined as the highest dose at which less than approximately one-third of the participants have a DLT. Dose-limiting toxicities occurring during the first 28 days of treatment guide dose escalation and determination of the MTD and RP2D. In addition, participants with late-onset safety events meeting the definition of DLT or those who had intolerable, lower grade persistent toxicity determined to be attributable to either study drug (e.g., Grade 2 peripheral neuropathy) are considered in the selection of each combination RP2D. […]
A DLT is defined as the occurrence of any of the toxicities listed in Table 4 that are possibly, probably, or definitely due to study treatment occurring from the start of treatment up to and including Day 28. All DLTs will be assessed by the investigator using Common Terminology Criteria for Adverse Events: Version 5 (CTCAE v5) criteria. […]

[2] = tested on: plasma kynurenine levels (IDO1 inhibition)
Experimental: Clinical laboratory tests are performed, including measurement of kynurenine levels in blood plasma and tumor samples.
Plasma kynurenine levels were measured by an LC-MS/MS method at World Wide Clinical Trials, Inc. Patient samples were obtained pre-dose and at defined times following treatment.
Plasma kynurenine was measured pre-treatment (C1D1) and at the indicated visits.

[3] = first line therapy in advanced endometrial cancer
[4] = MSI-H or MMR deficient endometrial cancer progressed on prior therapy

Q: With carboplatin and paclitaxel as the compound, how does the ORR (endometrial cancer; [3]) read?
A: approximately 50%

Q: And the OS (endometrial cancer; [3])?
A: 3 years

Q: What about the PFS (endometrial cancer; [3]) of the same compound?
A: 13 months

Q: Which results are given for `NS(=O)(=O)NCCNc1nonc1C(=NO)Nc1ccc(F)c(Br)c1` [epacadostat, 4-({2-[(aminosulfonyl)amino]ethyl}amino)-N-(3-bromo-4-fluorophenyl)-N′-hydroxy-1,2,5-oxadiazole-3-carboximidamide]?
A: maximum tolerated dose (MTD) assessment [1]: exceeded the MTD; reductions in plasma kynurenine levels compared to Group 1 ([2]; 600 mg BID epacadostat (Group 2) vs 100 mg BID (Group 1), with ANTIBODY X 500 mg Q4W, day 8 of treatment, solid tumor patients, 3 per group): increased reductions in plasma kynurenine levels; patients showing sustained reductions in plasma kynurenine ([2]; 600 mg BID epacadostat with ANTIBODY X 500 mg Q4W, after 5 weeks of treatment): 2/3; decreases in plasma kynurenine over visits (FIG. 1) ([2]; epacadostat 600 mg BID with ANTIBODY X, pre-treatment (C1D1) vs later visits): sustained (up to 4 months) decreases in plasma kyn in most patients; also recorded: sustained (up to 4 months) decreases in plasma kynurenine levels in most patients; normalization of kynurenine ([2]; epacadostat 600 mg BID with ANTIBODY X, preliminary observations): durable normalization of kynurenine

Q: Which “RR (response rate)” value (endometrial cancer; endometrial cancer patients previously treated with combination of cisplatinum and doxorubicin) does the source give for `CC(=O)O[C@H]1C(=O)[C@@]2(C)[C@H]([C@H](OC(=O)c3ccccc3)[C@]3(O)C[C@H](OC(=O)[C@H](O)[C@@H](NC(=O)c4ccccc4)c4ccccc4)C(C)=C1C3(C)C)[C@]1(OC(C)=O)CO[C@@H]1C[C@@H]2O` [Paclitaxel] here?
A: 25%

Q: For “Pembrolizumab: another anti-PD-1 antibody”, which “ORR for EC” value (endometrial cancer; [4]) is on record?
A: 36%

Q: What about the duration of response (endometrial cancer; [4]) of the same compound?
A: 4-17 months

Q: For `CC(=O)O[C@@]12CO[C@@H]1C[C@H](O)[C@@]1(C)C(=O)[C@H](O)C3=C(C)[C@@H](OC(=O)[C@H](O)[C@@H](NC(=O)OC(C)(C)C)c4ccccc4)C[C@@](O)([C@@H](OC(=O)c4ccccc4)[C@H]21)C3(C)C` [docetaxel], which “RR (response rate)” value (endometrial cancer; endometrial cancer patients treated with paclitaxel in first line therapy) is on record?
A: 8%
